Reference: ChEMBL document CHEMBL1151575, “J-104,123, a novel and orally-active inhibitor of squalene synthase: Stereoselective synthesis and cholesterol lowering effects in dogs” (Bioorg Med Chem Lett, 1996)

Key:
[1] = Area under the curve for compound was evaluated in dog at a dose of 20 mg/kg.; format: ADME, organism-based, Canis lupus familiaris; parameters: dose 20 mg/kg; details: in vivo
[2] = molecular target: T1, Squalene synthase (Homo sapiens, UniProt P37268); test: Inhibitory activity against squalene synthase (SQS) obtained from HepG2 cells; format: cell-based
T1 sequence (P37268 whole entry): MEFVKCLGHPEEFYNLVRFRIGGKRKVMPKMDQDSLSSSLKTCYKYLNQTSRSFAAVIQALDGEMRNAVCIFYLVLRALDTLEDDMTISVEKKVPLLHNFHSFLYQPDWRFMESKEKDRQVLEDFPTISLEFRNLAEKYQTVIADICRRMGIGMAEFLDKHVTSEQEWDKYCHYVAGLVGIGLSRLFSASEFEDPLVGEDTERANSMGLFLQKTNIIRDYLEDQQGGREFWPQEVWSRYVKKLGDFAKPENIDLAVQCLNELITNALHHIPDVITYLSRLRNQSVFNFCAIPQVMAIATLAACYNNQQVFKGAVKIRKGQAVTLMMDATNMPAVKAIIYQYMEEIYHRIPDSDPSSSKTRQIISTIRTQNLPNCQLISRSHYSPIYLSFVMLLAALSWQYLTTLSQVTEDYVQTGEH

[3] = Area under the curve for compound was evaluated in dog at a dose of 10 mg/kg.; format: ADME, organism-based, Canis lupus familiaris; parameters: dose 10 mg/kg; details: in vivo

AUC [1]	IC50 [2]	AUC [3]	SMILES
54000 ng·h/mL	2.5 nM	–	C[C@@H](CC(=O)O)CC(=O)N[C@@H](C)[C@H](/C=C/c1ccc2ccccc2c1)Cc1ccc(Cl)c(Cl)c1
–	3.9 nM	9900 ng·h/mL	C[C@@H](CC(=O)O)CC(=O)N[C@@H](C)[C@@H](Cc1ccc(Cl)c(Cl)c1)c1ccc(-c2ccccc2)c(F)c1
900 ng·h/mL	–	–	C[C@H](NC(=O)C[C@@H](CC(=O)O)C(=O)O)[C@@H](Cc1ccc(Cl)c(Cl)c1)c1ccc(-c2ccccc2)c(F)c1
